Results from patent publication US20200354426A1 (MEDIMMUNE LIMITED, priority 2016, published 2020).
“And” between values parts separate entries of the source, which are not always exact repeats. Identical values can stand only once. Like-named read-outs stand apart in the source and are kept apart here. Numbered stars: 1 amine (or outer) side, 2 acyl side, 3 side chain; on linkers, the order of the positions; unused ones are H or OH. Side chains are listed from the residue outwards. Peptide text beside a SMILES is read from it. * marks the point of attachment. γGlu = O=C(O)[C@H](CCC(=O)[*:2])N[*:1]; Palmitoyl = CCCCCCCCCCCCCCCC(=O)*; βAla = NCCC(=O)O

How the values were obtained:
[1] = rat plasma (frozen blank plasma, thawed); details: 37° C., up to 48 hours
[2] = mouse plasma (frozen blank plasma, thawed); details: 37° C., up to 48 hours
[3] = human plasma (frozen blank plasma, thawed); details: 37° C., up to 48 hours
Human GIPr = molecular target: T1, Human GIPr (Homo sapiens, UniProt P48546); test: cAMP activity assay in assay medium (assay 1); type: cell-based; details: Table 4
T1 construct: expressed in transfected cells
T1 sequence (P48546 22-466): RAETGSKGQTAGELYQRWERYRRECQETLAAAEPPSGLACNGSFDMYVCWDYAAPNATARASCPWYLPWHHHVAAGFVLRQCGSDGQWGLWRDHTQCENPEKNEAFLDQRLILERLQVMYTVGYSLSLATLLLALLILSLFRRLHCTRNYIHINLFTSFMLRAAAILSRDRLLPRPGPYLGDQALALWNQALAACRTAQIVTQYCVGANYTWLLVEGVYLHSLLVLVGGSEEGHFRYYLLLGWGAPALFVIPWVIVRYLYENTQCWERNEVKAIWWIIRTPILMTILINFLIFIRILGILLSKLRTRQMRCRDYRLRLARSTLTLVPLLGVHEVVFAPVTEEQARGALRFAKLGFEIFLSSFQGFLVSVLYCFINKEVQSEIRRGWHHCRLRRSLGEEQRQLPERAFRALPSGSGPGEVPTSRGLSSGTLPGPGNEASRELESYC
Text: (§1) Biological Activity of Peptides in Cell-Based cAMP Activity Assay (Assay 1):
(§2) All sample dilutions were made in duplicate.

Human GlucR = molecular target: T2, Human GlucR (Homo sapiens, UniProt P47871); test: cAMP activity assay in assay medium (assay 1); type: cell-based; details: Table 4
T2 construct: expressed in transfected cells
T2 sequence (P47871 26-477): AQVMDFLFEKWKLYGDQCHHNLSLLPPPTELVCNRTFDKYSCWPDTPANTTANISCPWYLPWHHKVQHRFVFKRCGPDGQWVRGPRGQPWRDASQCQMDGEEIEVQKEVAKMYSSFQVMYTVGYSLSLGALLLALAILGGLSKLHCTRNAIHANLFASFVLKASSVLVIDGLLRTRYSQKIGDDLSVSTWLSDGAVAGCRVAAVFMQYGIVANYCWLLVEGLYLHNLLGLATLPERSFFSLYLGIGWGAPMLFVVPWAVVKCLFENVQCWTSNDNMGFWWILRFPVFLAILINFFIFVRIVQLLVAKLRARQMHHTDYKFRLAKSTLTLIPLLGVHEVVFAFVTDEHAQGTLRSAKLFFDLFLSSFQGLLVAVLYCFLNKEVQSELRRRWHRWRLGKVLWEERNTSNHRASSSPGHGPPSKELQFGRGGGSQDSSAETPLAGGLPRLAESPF
Text: as §1, §2

Human GLP1R = Human GLP1R (Homo sapiens, UniProt P43220); test: cAMP activity assay in assay medium (assay 1); type: cell-based; set-up: expressed in transfected cells; details: Table 4
Human GLP1R, sequence (P43220 24-463): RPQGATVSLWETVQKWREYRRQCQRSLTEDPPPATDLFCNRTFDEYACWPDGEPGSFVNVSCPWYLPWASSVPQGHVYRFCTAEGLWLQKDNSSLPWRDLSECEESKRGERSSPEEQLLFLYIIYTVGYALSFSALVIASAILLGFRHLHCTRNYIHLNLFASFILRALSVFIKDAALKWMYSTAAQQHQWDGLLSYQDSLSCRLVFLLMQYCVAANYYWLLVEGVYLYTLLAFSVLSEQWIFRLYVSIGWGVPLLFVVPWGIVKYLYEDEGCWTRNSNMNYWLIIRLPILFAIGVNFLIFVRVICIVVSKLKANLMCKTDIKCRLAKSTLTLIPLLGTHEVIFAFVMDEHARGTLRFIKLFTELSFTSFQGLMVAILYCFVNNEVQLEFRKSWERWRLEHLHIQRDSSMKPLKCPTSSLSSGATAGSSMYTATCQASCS
Text: as §1, §2

[4] = assay medium, read-out: hGIPR EC50
[5] = assay medium, read-out: hGlucR EC50
[6] = assay medium, read-out: hGLP1R EC50

fragment found [1] | fragment found [2] | not cleaved [3] | EC50 (Human GIPr; [4]) | EC50 (Human GlucR; [5]) | EC50 (Human GLP1R; [6]) | Compound | other results
DPP cleaved product, minor | DPP cleaved product, minor | – | – | – | – | HSQGTFTSDXSEYLDSERARDFVAWLEAGG-amide ×10 = K(gE-palm) | –
DPP cleaved product | DPP cleaved product | 100% stable peptide at 24 h | – | – | – | HSQGTFTSDXSRYLDSRSARDFVAWLEAGG-amide ×10 = K(gE-palm) | –
– | – | – | 1170 nM | 82.8 nM | 0.0695 nM | CCCCCCCCCCCCCCCC(=O)NCCC(=O)NCCCC[C@H](NC(=O)[C@H](CO)NC(=O)[C@H](CC(=O)O)NC(=O)[C@H](CC(C)C)NC(=O)[C@H](Cc1ccc(O)cc1)NC(=O)[C@H](CCC(=O)O)NC(=O)[C@H](CO)NC(=O)[C@H](Cc1ccc(O)cc1)NC(=O)[C@H](CC(=O)O)NC(=O)[C@H](CO)NC(=O)[C@@H](NC(=O)[C@H](Cc1ccccc1)NC(=O)[C@@H](NC(=O)CNC(=O)[C@H](CCC(=O)O)NC(=O)[C@H](CO)NC(=O)[C@@H](N)Cc1c[nH]cn1)[C@@H](C)O)[C@@H](C)O)C(=O)N[C@@H](CCCNC(=N)N)C(=O)N[C@@H](C)C(=O)N[C@@H](CCCNC(=N)N)C(=O)N[C@@H](CC(=O)O)C(=O)N[C@@H](Cc1ccccc1)C(=O)N[C@H](C(=O)N[C@@H](C)C(=O)N[C@@H](Cc1c[nH]c2ccccc12)C(=O)N[C@@H](CC(C)C)C(=O)N[C@@H](CCC(=O)O)C(=O)N[C@@H](C)C(=O)NCC(=O)NCC(N)=O)C(C)C [g734] (H-HSEGTFTSDYSEYLDSK([βAla-Palmitoyl])RARDFVAWLEAGG-NH2; N-terminus assumed) | –
– | – | – | – | – | – | CCCCCCCCCCCCCCCC(=O)N[C@@H](CCC(=O)NCCCC[C@H](NC(=O)[C@H](Cc1ccc(O)cc1)NC(=O)[C@H](CCCCN)NC(=O)[C@H](CO)NC(=O)[C@H](Cc1ccc(O)cc1)NC(=O)[C@H](CC(=O)O)NC(=O)[C@H](CO)NC(=O)[C@@H](NC(=O)[C@H](Cc1ccccc1)NC(=O)[C@@H](NC(=O)CNC(=O)[C@H](CCC(=O)O)NC(=O)CNC(=O)[C@@H](N)Cc1c[nH]cn1)[C@@H](C)O)[C@@H](C)O)C(=O)N[C@@H](CC(=O)O)C(=O)N[C@@H](CO)C(=O)N[C@@H](CCCNC(=N)N)C(=O)N[C@@H](CCCNC(=N)N)C(=O)N[C@@H](C)C(=O)N[C@@H](CCC(N)=O)C(=O)N[C@@H](CC(=O)O)C(=O)N[C@@H](Cc1ccccc1)C(=O)N[C@H](C(=O)N[C@@H](CCC(N)=O)C(=O)N[C@@H](Cc1c[nH]c2ccccc12)C(=O)N[C@@H](CC(C)C)C(=O)N[C@H](C(=O)N[C@@H](C)C(=O)NCC(=O)NCC(N)=O)C(C)C)C(C)C)C(=O)O [g733] (H-HGEGTFTSDYSKYK([γGlu-Palmitoyl])DSRRAQDFVQWLVAGG-NH2) | EC50 (Human GIPr; hGIPR EC50, assay medium): 817 nM; EC50 (Human GlucR; hGlucR EC50, assay medium): 62 nM; EC50 (Human GLP1R; hGLP1R EC50, assay medium): 0.0231 nM
– | – | – | 3.65 nM | 0.0106 nM | 0.0314 nM | CC(C)C[C@H](NC(=O)[C@H](Cc1ccc(O)cc1)NC(=O)[C@H](CCCCN)NC(=O)[C@H](CO)NC(=O)[C@H](Cc1ccc(O)cc1)NC(=O)[C@H](CC(=O)O)NC(=O)[C@H](CO)NC(=O)[C@@H](NC(=O)[C@H](Cc1ccccc1)NC(=O)[C@@H](NC(=O)CNC(=O)[C@H](CCC(N)=O)NC(=O)[C@H](CO)NC(=O)[C@@H](N)Cc1c[nH]cn1)[C@@H](C)O)[C@@H](C)O)C(=O)N[C@@H](CC(=O)O)C(=O)N[C@@H](CO)C(=O)N[C@@H](CCCNC(=N)N)C(=O)N[C@@H](CCCNC(=N)N)C(=O)N[C@@H](C)C(=O)N[C@@H](CCC(N)=O)C(=O)N[C@@H](CC(=O)O)C(=O)N[C@@H](Cc1ccccc1)C(=O)N[C@H](C(=O)N[C@@H](CCC(N)=O)C(=O)N[C@@H](Cc1c[nH]c2ccccc12)C(=O)N[C@@H](CC(C)C)C(=O)N[C@H](C(=O)N[C@@H](CCCNC(=N)N)C(=O)NCC(=O)NCC(=O)N[C@@H](CO)C(=O)N[C@@H](CO)C(=O)NCC(=O)NCC(=O)N[C@@H](CO)C(=O)N[C@@H](CO)C(N)=O)C(C)C)C(C)C [g316] | –

Compound | fragment found [1] | fragment found [2] | not cleaved [3] | EC50 (Human GIPr; [4]) | EC50 (Human GlucR; [5]) | EC50 (Human GLP1R; [6]) | other results
HSQGTFTSDYSKXLDSERARDFVAWLVAGG-amide ×13 = K(gE-palm) | DPP cleaved product | DPP cleaved product and +1 DPP cleaved product | 100% stable peptide at 24 h | – | – | – | –
